Laboratory results: ChEMBL document CHEMBL3045518, “Synthesis of novel 3-[5-ethyl-2-(2-phenoxy-ethyl)-pyridin]-5-substituted isoxazoline libraries via 1,3-dipolar cycloaddition and evaluation of antimicrobial activities” (2006)
Converted amounts (≈) assume the structure as drawn.

Assays:
Type in all cases: functional
Xanthomonas oryzae [1] = test: Antibacterial activity against Xanthomonas oryzae at 25 ug/disk after 24 hr by disk diffusion method; conditions: read-out: DIZ
[2] = tested on: Xanthomonas euvesicatoria pv. sesami; test: Antibacterial activity against Xanthomonas campestris pv. sesami at 25 ug/disk after 24 hr by disk diffusion method; conditions: read-out: DIZ
Xanthomonas oryzae [3] = test: Antibacterial activity against Xanthomonas oryzae by microdilution method
[4] = tested on: Xanthomonas euvesicatoria pv. sesami; test: Antibacterial activity against Xanthomonas campestris pv. sesami by microdilution method
Penicillium sp. [5] = test: Antifungal activity against Penicillium sp. at 25 ug/disk after 48 hr by disk diffusion method; conditions: for zone of inhibition at 25 µg/disc: read-out: DIZ
Fusarium verticillioides [6] = test: Antifungal activity against Fusarium verticillioides at 25 ug/disk after 48 hr by disk diffusion method; conditions: for zone of inhibition at 25 µg/disc: read-out: DIZ
Trichoderma [7] = test: Antifungal activity against Trichoderma sp. at 25 ug/disk after 48 hr by disk diffusion method; conditions: for zone of inhibition at 25 µg/disc: read-out: DIZ
Fusarium oxysporum [8] = test: Antifungal activity against Fusarium oxysporum at 25 ug/disk after 48 hr by disk diffusion method; conditions: for zone of inhibition at 25 µg/disc: read-out: DIZ
Aspergillus flavus [9] = test: Antifungal activity against Aspergillus flavus at 25 ug/disk after 48 hr by disk diffusion method; conditions: for zone of inhibition at 25 µg/disc: read-out: DIZ
Aspergillus niger [10] = test: Antifungal activity against Aspergillus niger at 25 ug/disk after 48 hr by disk diffusion method; conditions: for zone of inhibition at 25 µg/disc: read-out: DIZ
Pseudomonas fluorescens [11] = test: Antibacterial activity against Pseudomonas fluorescens at 25 ug/disk after 24 hr by disk diffusion method; conditions: read-out: DIZ
Escherichia coli [12] = test: Antibacterial activity against Escherichia coli at 25 ug/disk after 24 hr by disk diffusion method; conditions: read-out: DIZ
Bacillus subtilis [13] = test: Antibacterial activity against Bacillus subtilis at 25 ug/disk after 24 hr by disk diffusion method; conditions: read-out: DIZ
Penicillium sp. [14] = test: Antifungal activity against Penicillium sp. after 48 hr by microdilution method
Fusarium verticillioides [15] = test: Antifungal activity against Fusarium verticillioides after 48 hr by microdilution method
Trichoderma [16] = test: Antifungal activity against Trichoderma sp. after 48 hr by microdilution method
Aspergillus flavus [17] = test: Antifungal activity against Aspergillus flavus after 48 hr by microdilution method
Fusarium oxysporum [18] = test: Antifungal activity against Fusarium oxysporum after 48 hr by microdilution method
Aspergillus niger [19] = test: Antifungal activity against Aspergillus niger after 48 hr by microdilution method
Pseudomonas fluorescens [20] = test: Antibacterial activity against Pseudomonas fluorescens by microdilution method
Escherichia coli [21] = test: Antibacterial activity against Escherichia coli by microdilution method
Bacillus subtilis [22] = test: Antibacterial activity against Bacillus subtilis by microdilution method

Row | Molecule | zone of inhibition at 25 µg/disc (Xanthomonas oryzae [1]) [mm] | zone of inhibition at 25 µg/disc [2] [mm] | MIC (Xanthomonas oryzae [3]) [µg/mL] | MIC [4] [µg/mL] | zone of inhibition at 25 µg/disc (Penicillium sp. [5]) [mm] | zone of inhibition at 25 µg/disc (Fusarium verticillioides [6]) [mm] | zone of inhibition at 25 µg/disc (Trichoderma [7]) [mm] | zone of inhibition at 25 µg/disc (Fusarium oxysporum [8]) [mm] | zone of inhibition at 25 µg/disc (Pseudomonas fluorescens [11]) [mm] | zone of inhibition at 25 µg/disc (Escherichia coli [12]) [mm] | zone of inhibition at 25 µg/disc (Bacillus subtilis [13]) [mm] | MIC (Penicillium sp. [14]) [µg/mL] | MIC (Fusarium verticillioides [15]) [µg/mL] | MIC (Trichoderma [16]) [µg/mL] | MIC (Aspergillus flavus [17]) [µg/mL] | MIC (Fusarium oxysporum [18]) [µg/mL] | MIC (Aspergillus niger [19]) [µg/mL] | MIC (Pseudomonas fluorescens [20]) [µg/mL] | MIC (Escherichia coli [21]) [µg/mL] | MIC (Bacillus subtilis [22]) [µg/mL] | also measured
1 | CN(C)[C@@H]1C(O)=C(C(N)=O)C(=O)[C@@]2(O)C(O)=C3C(=O)c4c(O)cccc4[C@@](C)(O)[C@H]3C[C@@H]12 [TETRACYCLINE] | 12 | 12 | 13 (≈ 29.3 µM) | 9 (≈ 20.3 µM) | – | – | – | – | – | – | – | – | – | – | – | – | – | – | – | – | –
2 | CCc1ccc(CCOc2ccc(C3=NOC(CO)C3)cc2)nc1 (stereo not drawn) | 13 | 13 | 12 (≈ 36.8 µM) | 10 (≈ 30.6 µM) | 11 | 12 | 15 | 15 | 17 | 13 | 14 | 9 (≈ 27.6 µM) | 10 (≈ 30.6 µM) | 13 (≈ 39.8 µM) | 16 (≈ 49 µM) | 10 (≈ 30.6 µM) | 15 (≈ 46 µM) | 12 (≈ 36.8 µM) | 14 (≈ 42.9 µM) | 18 (≈ 55.1 µM) | zone of inhibition at 25 µg/disc (Aspergillus flavus [9]): 9 mm; zone of inhibition at 25 µg/disc (Aspergillus niger [10]): 8 mm
3 | CCc1ccc(CCOc2ccc(C3=NOC(C#N)C3)cc2)nc1 (stereo not drawn) | 4 | 5 | 22 (≈ 68.5 µM) | 20 (≈ 62.2 µM) | 2 | 10 | 4 | 5 | 6 | 7 | 7 | 20 (≈ 62.2 µM) | 18 (≈ 56 µM) | 20 (≈ 62.2 µM) | 21 (≈ 65.3 µM) | 19 (≈ 59.1 µM) | 20 (≈ 62.2 µM) | 23 (≈ 71.6 µM) | 21 (≈ 65.3 µM) | 27 (≈ 84 µM) | zone of inhibition at 25 µg/disc (Aspergillus flavus [9]): 3 mm; zone of inhibition at 25 µg/disc (Aspergillus niger [10]): 2 mm
4 | CCc1ccc(CCOc2ccc(C3=NOC(Cc4ccc(OC)c(OC)c4)C3)cc2)nc1 (stereo not drawn) | 9 | 10 | 15 (≈ 33.6 µM) | 11 (≈ 24.6 µM) | 8 | 10 | 13 | 12 | 14 | 15 | 14 | 12 (≈ 26.9 µM) | 11 (≈ 24.6 µM) | 15 (≈ 33.6 µM) | 17 (≈ 38.1 µM) | 13 (≈ 29.1 µM) | 18 (≈ 40.3 µM) | 15 (≈ 33.6 µM) | 15 (≈ 33.6 µM) | 20 (≈ 44.8 µM) | zone of inhibition at 25 µg/disc (Aspergillus flavus [9]): 7 mm; zone of inhibition at 25 µg/disc (Aspergillus niger [10]): 6 mm
5 | CCOC(=O)C1CC(c2ccc(OCCc3ccc(CC)cn3)cc2)=NO1 (stereo not drawn) | 9 | 9 | 16 (≈ 43.4 µM) | 14 (≈ 38 µM) | 8 | 9 | 12 | 11 | 13 | 12 | 11 | 11 (≈ 29.9 µM) | 12 (≈ 32.6 µM) | 14 (≈ 38 µM) | 18 (≈ 48.9 µM) | 14 (≈ 38 µM) | 17 (≈ 46.1 µM) | 16 (≈ 43.4 µM) | 16 (≈ 43.4 µM) | 20 (≈ 54.3 µM) | zone of inhibition at 25 µg/disc (Aspergillus flavus [9]): 8 mm; zone of inhibition at 25 µg/disc (Aspergillus niger [10]): 6 mm
6 | CCc1ccc(CCOc2ccc(C3=NOC(Cc4ccc(O)c(OC)c4)C3)cc2)nc1 (stereo not drawn) | 12 | 13 | 13 (≈ 30.1 µM) | 10 (≈ 23.1 µM) | 9 | 11 | 15 | 13 | 18 | 14 | 12 | 11 (≈ 25.4 µM) | 10 (≈ 23.1 µM) | 13 (≈ 30.1 µM) | 15 (≈ 34.7 µM) | 12 (≈ 27.7 µM) | 16 (≈ 37 µM) | 12 (≈ 27.7 µM) | 14 (≈ 32.4 µM) | 18 (≈ 41.6 µM) | zone of inhibition at 25 µg/disc (Aspergillus flavus [9]): 10 mm; zone of inhibition at 25 µg/disc (Aspergillus niger [10]): 7 mm
7 | CN[C@@H]1[C@H](O[C@H]2[C@H](O[C@H]3[C@H](O)[C@@H](O)[C@H](N=C(N)N)[C@@H](O)[C@@H]3N=C(N)N)O[C@@H](C)[C@]2(O)C=O)O[C@@H](CO)[C@H](O)[C@H]1O [STREPTOMYCIN] | – | – | – | – | – | – | – | – | 17 | 14 | 13 | – | – | – | – | – | – | 12 (≈ 20.6 µM) | 13 (≈ 22.4 µM) | 19 (≈ 32.7 µM) | –
8 | CCc1ccc(CCOc2ccc(C3=NOC(C(=O)OC)C3)cc2)nc1 (stereo not drawn) | 3 | 3 | 27 (≈ 76.2 µM) | 22 (≈ 62.1 µM) | 2 | 3 | 5 | 4 | 5 | 6 | 5 | 24 (≈ 67.7 µM) | 22 (≈ 62.1 µM) | 20 (≈ 56.4 µM) | 24 (≈ 67.7 µM) | 20 (≈ 56.4 µM) | 22 (≈ 62.1 µM) | 22 (≈ 62.1 µM) | 24 (≈ 67.7 µM) | 27 (≈ 76.2 µM) | zone of inhibition at 25 µg/disc (Aspergillus flavus [9]): 4 mm; zone of inhibition at 25 µg/disc (Aspergillus niger [10]): 3 mm
9 | NYSTATIN | – | – | – | – | – | – | – | – | – | – | – | 10 | 9 | 12 | 15 | 11 | 15 | – | – | – | inhibition zone (IZ) (Penicillium sp. [5]): 10 mm; inhibition zone (IZ) (Fusarium verticillioides [6]): 12 mm; inhibition zone (IZ) (Trichoderma [7]): 16 mm; inhibition zone (IZ) (Fusarium oxysporum [8]): 14 mm; inhibition zone (IZ) (Aspergillus flavus [9]): 10 mm; inhibition zone (IZ) (Aspergillus niger [10]): 8 mm
10 | CCc1ccc(CCOc2ccc(C3=NOC(Cc4ccc5c(c4)OCO5)C3)cc2)nc1 (stereo not drawn) | 3 | 4 | 22 (≈ 51.1 µM) | 21 (≈ 48.8 µM) | 2 | 3 | 4 | 4 | 7 | 6 | 5 | 21 (≈ 48.8 µM) | 18 (≈ 41.8 µM) | 20 (≈ 46.5 µM) | 21 (≈ 48.8 µM) | 22 (≈ 51.1 µM) | 22 (≈ 51.1 µM) | 20 (≈ 46.5 µM) | 22 (≈ 51.1 µM) | 25 (≈ 58.1 µM) | zone of inhibition at 25 µg/disc (Aspergillus flavus [9]): 3 mm; zone of inhibition at 25 µg/disc (Aspergillus niger [10]): 3 mm
11 | CCc1ccc(CCOc2ccc(C3=NOC(c4ccccc4)C3)cc2)nc1 (stereo not drawn) | 4 | 4 | 25 (≈ 67.1 µM) | 27 (≈ 72.5 µM) | 3 | 3 | 6 | 4 | 6 | 6 | 5 | 23 (≈ 61.8 µM) | 20 (≈ 53.7 µM) | 20 (≈ 53.7 µM) | 24 (≈ 64.4 µM) | 21 (≈ 56.4 µM) | 22 (≈ 59.1 µM) | 26 (≈ 69.8 µM) | 28 (≈ 75.2 µM) | 27 (≈ 72.5 µM) | zone of inhibition at 25 µg/disc (Aspergillus flavus [9]): 4 mm; zone of inhibition at 25 µg/disc (Aspergillus niger [10]): 3 mm
